Measured values from patent US10299467B2, “Animal model for type 2 diabetes and obesity” (Universitaetsklinikum Freiburg, priority 2012, dated 2019).

What was measured:
Assay type in all cases: in vivo, mouse
WAT of mice [1] = assay: β3-adrenergic agonist treatment of mice, H&E staining of white adipose tissue (beige fat islets)
Method: (§1) All mice were housed in the pathogen-free barrier facility of the University Medical Center Freiburg in accordance with institutional guidelines and approved by the regional board. Mice were maintained in a temperature- and humidity-controlled animal facility with a 12-hour light/dark cycle, free access to water, and a standard rodent chow (Kliba, breeding, 3807). The high-fat diet (HFD) study was carried out with a chow containing 4.056 kcal/kg (fat: 1.600 kcal/kg and sucrose: 1.600 kcal/kg; Research Diets). HFD was given to mice at 5 weeks of age. Mice were analysed at 25 weeks of age. For cold exposure experiments, mice were maintained at 10° C. with a 12 hour light/dark cycle, free access to water, and a standard rodent chow. Animals were killed by cervical dislocation, tissues were immediately collected, weighted, frozen in liquid nitrogen or processed for further analyses. Nomenclature for dissected adipose depots was used according to Seale et al.^17. Epididymidal WAT (epWAT): prominent bilateral intra-abdominal visceral depots in male mice attached to the epididymis. Inguinal WAT (ingWAT): bilateral superficial inguinal depots between the skin and muscle fascia just anterior to the lower segment of the hind limbs. Perimuscular WAT (pmWAT): depots located on the upper part of the quadriceps muscle. […]

LSD1 = assay: β3-adrenergic agonist treatment of mice, Western blot of LSD1 in WAT; details: wild-type mice, CL316,243 injected intraperitoneally at 1 mg/kg vs vehicle
Method: as §1, with “al.^17.” for “al.^17. Epididymidal WAT (epWAT): prominent bilateral intra-abdominal visceral depots in male mice attached to the epididymis. Inguinal WAT (ingWAT): bilateral superficial inguinal depots between the skin and muscle fascia just anterior to the lower segment of the hind limbs. Perimuscular WAT (pmWAT): depots located on the upper part of the quadriceps muscle.”
Homogenates were separated in 10% polyacrylamide gels and blotted to Hybond nitrocellulose membranes (GE Healthcare). […] Secondary antibodies conjugated to horseradish peroxidase (GE Healthcare) were detected using an enhanced chemiluminescence detection system (GE Healthcare). Protein levels were quantified using the Chemi Capt software (Peqlab).

WAT of mice [2] = assay: β3-adrenergic agonist treatment of Ctrl and LSD1+/− mice, qRT-PCR transcript levels in WAT
Method: All mice were housed in the pathogen-free barrier facility of the University Medical Center Freiburg in accordance with institutional guidelines and approved by the regional board. Mice were maintained in a temperature- and humidity-controlled animal facility with a 12-hour light/dark cycle, free access to water, and a standard rodent chow (Kliba, breeding, 3807). The high-fat diet (HFD) study was carried out with a chow containing 4.056 kcal/kg (fat: 1.600 kcal/kg and sucrose: 1.600 kcal/kg; Research Diets). HFD was given to mice at 5 weeks of age. Mice were analysed at 25 weeks of age. For cold exposure experiments, mice were maintained at 10° C. with a 12 hour light/dark cycle, free access to water, and a standard rodent chow. Animals were killed by cervical dislocation, tissues were immediately collected, weighted, frozen in liquid nitrogen or processed for further analyses. Nomenclature for dissected adipose depots was used according to Seale et al.^17. Epididymidal WAT (epWAT): prominent bilateral intra-abdominal visceral depots in male mice attached to the epididymis. Inguinal WAT (ingWAT): bilateral superficial inguinal depots between the skin and muscle fascia just anterior to the lower segment of the hind limbs. Perimuscular WAT (pmWAT): depots located on the upper part of the quadriceps muscle. Retroperitoneal WAT (rpWAT): bilateral depots in abdominal cavity behind the peritoneum on the dorsal side of the kidney. Interscapular BAT (BAT): most prominent depot of brown adipocytes in rodents, found between the scapulae. In vivo experiments including food consumption, serum analysis, glucose tolerance and insulin sensitivity tests, temperature measurements, body lean and fat contents, and energy expenditure were described^48. CL316,243 (Sigma-Aldrich) was injected intraperitoneally at 1 mg/kg.
RNA was isolated with TRIzol Reagent (Invitrogen). […] Quantitative RT-PCR was performed using the Abgene SYBR Green PCR kit (Invitrogen) according to the supplier's protocol. Data were analysed using the standard curve method^53. […]

## C[C@H](Cc1ccc2c(c1)OC(C(=O)[O-])(C(=O)[O-])O2)NC[C@H](O)c1cccc(Cl)c1.[Na+].[Na+] [CL316,243]
WAT of mice [1]; LSD1+/− mice compared to control mice, both treated with CL316,243
  clusters of beige fat cells in WAT: fewer clusters of beige fat cells
WAT of mice [1]; wild-type mice, CL316,243 injected intraperitoneally at 1 mg/kg vs vehicle
  beige adipocyte formation in WAT: appearance of multilocular beige adipocytes
LSD1
  LSD1 protein levels in WAT: increased
WAT of mice [2]; Ctrl and LSD1+/− mice, vs vehicle
  expression of white fat-selective and adipogenic markers: not significantly affected
WAT of mice [2]; LSD1+/− mice
  adrenergic induction of Cidea, Prdm16, Pgc-1α, Ucp1 and beige fat-selective markers in WAT: impaired
WAT of mice [2]; control mice, vs vehicle
  expression of Cidea, Prdm16, Pgc-1α, and Ucp1 and of beige fat-selective markers in WAT: significantly increases
